Test systems include DMS 273 small cell lung; LXFL 529 NSCLC; XF 498 CNS; NCI/ADR-RES ovarian; MDA-MB-435; MCF7 breast; T-47D breast; MDA-N.
What all share (assay): growth of human tumour cells (NCI), 48 h

These results are taken from PubChem BioAssay (NCI).

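Test compounds were applied to cells in 96-well plates for 48 hours at 5 doses. GI50: concentration for 50% inhibition of growth. TGI marks complete inhibition of growth.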

Consider `C1C[OH+]CCNCC[OH+]CC[OH+]CCN1.[Cl-].[Pt+4]`, for which, in the experiment with DMS 273 small cell lung, the GI50 was over 100 µM and the TGI is over 100 µM. For the same compound, in the experiment on LXFL 529 NSCLC, the GI50 is over 100 µM and the TGI is over 100 µM.
Consider `CN(C)C(=S)/N=c1\ss/c(=N\C(=S)N(C)C)n1-c1ccc(Cl)c(Cl)c1`, for which the TGI with DMS 273 small cell lung was over 100 µM.
With `O=S1OC2(c3ccccc3-c3ccccc32)c2ccccc21` (configuration not stated), the TGI in the experiment with XF 498 CNS and in the experiment on LXFL 529 NSCLC was over 100 µM throughout.
With `O=C(Nc1ccc(-n2cc(-c3ccncc3)c(-c3ccc(Cl)c(O)c3)n2)cc1)Nc1ccc(Cl)c(C(F)(F)F)c1`, the GI50 was 1880 nM in the experiment on NCI/ADR-RES ovarian, 1320 nM with MDA-MB-435, 2120 nM in the experiment on MCF7 breast and 2390 nM in the experiment on T-47D breast. The TGI in the experiment with NCI/ADR-RES ovarian is 4.83 µM; in the experiment with MDA-MB-435, 2.91 µM; in the experiment with MCF7 breast, 5.65 µM; in the experiment on T-47D breast it was 6.54 µM.
On to `COc1ccc(Nc2c3ccccc3nc3occ(Cl)c23)cc1`, for which the GI50 is under 10 nM with NCI/ADR-RES ovarian, under 10 nM in the experiment with MDA-MB-435, under 10 nM in the experiment with MCF7 breast and 88.3 nM with T-47D breast. For the same compound, the TGI in the experiment with NCI/ADR-RES ovarian was 2.09 µM; in the experiment on MDA-MB-435 it was under 0.0317 µM; in the experiment on MCF7 breast, over 33.2 µM; in the experiment on T-47D breast it was over 100 µM.
Take `CC(=O)c1sc(-c2nc(C)c(C(=O)/C=C\c3ccc(/C=C\C(=O)c4sc(-c5nc(C)c(C(C)=O)s5)nc4C)cc3)s2)nc1C`: the TGI in the experiment with DMS 273 small cell lung, with XF 498 CNS and in the experiment on LXFL 529 NSCLC was over 100 µM throughout.
Turning to `CN(CCCNC(=O)Cc1ccc2ccc3cccc4ccc1c2c34)CCCNc1cc(-c2ccc3ccccc3c2)nc2ccccc12`, the GI50 in the experiment with NCI/ADR-RES ovarian is 1490 nM; in the experiment on MDA-MB-435, 1440 nM; with MCF7 breast, 587 nM; with T-47D breast it was 2040 nM. For the same compound, the TGI amounted to 2.96 µM in the experiment on NCI/ADR-RES ovarian, 3.05 µM with MDA-MB-435, 2.08 µM with MCF7 breast and 4.19 µM in the experiment with T-47D breast.
On to `COc1cc2c3c(n(CCCN(C)C)c(=O)c2cc1OC)-c1ccccc1C3=O`, for which the GI50 is 5940 nM with NCI/ADR-RES ovarian, 19100 nM in the experiment with MDA-MB-435, 2340 nM with MCF7 breast and 30800 nM in the experiment with T-47D breast. For the same compound, the TGI in the experiment with NCI/ADR-RES ovarian was over 49.1 µM; in the experiment with MDA-MB-435, over 100 µM; in the experiment with MCF7 breast, over 53.4 µM; in the experiment with T-47D breast, over 100 µM.
With `COc1cc2c(cc1O)C1Cc3ccc(OC)c(O)c3C(C2)N1C` (configuration not stated), the TGI in the experiment on NCI/ADR-RES ovarian, in the experiment on MDA-MB-435, in the experiment on MCF7 breast, in the experiment with MDA-N and in the experiment with T-47D breast was over 100 µM each time.
As for `Nc1nc(CCl)nc(Nc2ccccc2)n1`, the TGI was determined as 14 µM with DMS 273 small cell lung and 28.9 µM in the experiment on LXFL 529 NSCLC.
Consider `Cc1cn2c(/C=C3\C(=O)N(C)c4ccc(O)cc43)c(C)nc2s1`, for which the GI50 with NCI/ADR-RES ovarian was 8270 nM; with MDA-MB-435 it was 1190 nM; in the experiment with MCF7 breast, 2970 nM; with T-47D breast, 4480 nM. Further, the TGI with NCI/ADR-RES ovarian was over 100 µM; in the experiment with MDA-MB-435 it was 3.92 µM; in the experiment with MCF7 breast, 11.9 µM; in the experiment with T-47D breast, 64.5 µM.
For `Cc1cc[c-]cc1.Fc1c[c-]c(-c2ccccn2)c(F)c1.[Pt+2].c1ccc(P(C[PH+](c2ccccc2)c2ccccc2)c2ccccc2)cc1`, the GI50 is 13900 nM with NCI/ADR-RES ovarian, 2180 nM with MDA-MB-435, 2330 nM in the experiment with MCF7 breast and 2340 nM in the experiment with T-47D breast. In addition, the TGI is 48.2 µM in the experiment with NCI/ADR-RES ovarian, 6.2 µM in the experiment on MDA-MB-435, 7.83 µM with MCF7 breast and 9.47 µM with T-47D breast.
On to `CN1NC(=Nc2ccccc2)Sc2c1cnn(-c1ccccc1)c2=O`, for which the TGI in the experiment on DMS 273 small cell lung and in the experiment with LXFL 529 NSCLC was over 100 µM in each case.
On to `N.N.N.N.[Cl-].[Co+3].[N-]=[N+]=[N-].[N-]=[N+]=[N-]`, for which, in the experiment with DMS 273 small cell lung, the GI50 is over 100 µM and the TGI is over 100 µM. In the experiment on LXFL 529 NSCLC, the GI50 was over 100 µM and the TGI is over 100 µM.
Regarding `CCOC(=O)c1c[nH]c2oc(/C=N/N3CC(CN4CCOCC4)OC3=O)cc2c1=O` (configuration not stated), the TGI in the experiment on NCI/ADR-RES ovarian, with MDA-MB-435, in the experiment with MCF7 breast, with MDA-N and with T-47D breast was over 100 µM in each case.
For the compound `C[C@]12CC[C@H](O)C[C@H]1CC[C@@H]1[C@@H]2CC[C@]2(C)[C@@H](C3=CC(=O)OC3)CC[C@]12O`, the TGI is 0.573 µM with NCI/ADR-RES ovarian, 1.02 µM in the experiment on MDA-MB-435, 0.806 µM with MDA-N and 0.858 µM with T-47D breast.
For `O=C(Nc1ccc(CO)cc1)c1coc2ccccc2c1=O`, the GI50 with NCI/ADR-RES ovarian, in the experiment with MDA-MB-435, with MCF7 breast and in the experiment with T-47D breast was over 100000 nM in each case. In addition, the TGI in the experiment on NCI/ADR-RES ovarian, in the experiment on MDA-MB-435, in the experiment with MCF7 breast and in the experiment on T-47D breast was over 100 µM in each case.
Take `O=C(/C=C/c1cc(CN2CCOCC2)c(O)c2ncccc12)c1cc(CN2CCOCC2)c(O)c2ncccc12`: the GI50 was 91 nM with NCI/ADR-RES ovarian, under 21.1 nM in the experiment with MDA-MB-435, under 17.5 nM with MCF7 breast and 57.4 nM in the experiment with T-47D breast. Besides, the TGI in the experiment with NCI/ADR-RES ovarian was over 100 µM; in the experiment with MDA-MB-435, over 100 µM; with MCF7 breast it was over 100 µM; with T-47D breast, 2.48 µM.
On to `CC(C)OC(=O)NNc1cc(Cl)ccc1Cl`, for which the TGI in the experiment on NCI/ADR-RES ovarian, in the experiment on MDA-MB-435, in the experiment with MCF7 breast, with MDA-N and in the experiment with T-47D breast was over 100 µM throughout.
As for `Nc1nc(SN=Nc2ccc(S(N)(=O)=O)cc2)c2[nH]cnc2n1`, the GI50 with NCI/ADR-RES ovarian is 455 nM; in the experiment on MDA-MB-435, 390 nM; in the experiment with MCF7 breast it was 289 nM; in the experiment on T-47D breast, 536 nM. The TGI in the experiment with NCI/ADR-RES ovarian, in the experiment on MDA-MB-435, in the experiment with MCF7 breast and in the experiment with T-47D breast was over 100 µM throughout.
In the case of `COc1ccc(-c2oc3cc(O)c(OC)c(O)c3c(=O)c2OC)cc1O`, the GI50 was 45.6 nM with NCI/ADR-RES ovarian, 25 nM in the experiment with MDA-MB-435, 316 nM in the experiment with MCF7 breast and 819 nM in the experiment on T-47D breast. In addition, the TGI in the experiment on NCI/ADR-RES ovarian was over 100 µM; with MDA-MB-435, 0.0674 µM; in the experiment on MCF7 breast, over 100 µM; in the experiment with T-47D breast, over 100 µM.
